Results on 1 molecule are retold here after patent publication US12121525B2, “Methods for treating GI syndrome and graft versus host disease” (Sloan Kettering Institute for Cancer Research, priority 2007, dated 2024).

For test [1], the system named is Jurkat cells. The experiment in a line: UV-C- and anti-Fas-induced apoptosis in Jurkat cells. The test is classed as cell-based, human. The following applies: 50 mM imipramine 30 min; 4 hours post UV-C or Fas stimulation. Here is the method:
(§1) Others have shown that ceramide is required for Fas-induced apoptosis in some cell types. We looked at the requirement for UV-C-induced ceramide generation in initiating the apoptotic response. By UV-C is meant ultraviolet radiation in the 100-280 nm wavelength range. In these studies imipramine was used to inhibit ASMase-activity. Pre-treatment of Jurkat cells with […] imipramine for 30 min decreased baseline ASMase activity, abrogated UV-C and Fas-induced ASMase activation at 1 min post stimulation and ceramide generation at 2 minutes, and attenuated apoptosis at 4 hours post-stimulation. […] Grassme et al., J Biol Chem. 2001, 276:20589, incorporated herein by reference.
H. Grassme, H. Schwarz, and E. Gulbins, Biochem Biophys Res Commun 284 (4), 1016 (2001), incorporated herein by reference. […] Importantly, we also observed that anti-ceramide and nystatin pretreatment yielded an approximate 1 log increase in clonogenic cell survival compared to vehicle controls after 5-50 J/m^2 UV-C or anti-Fas stimulation. […]
Apoptosis was assessed in vitro by two different techniques. […] Morphologic changes of nuclear apoptosis including chromatin condensation, segmentation and compaction along the periphery of the nucleus or the appearance of apoptotic bodies were quantified using an Axiovert S-100 Zeiss fluorescence microscope as previously described ^33. […]

Test [2] concerns Jurkat cells. The test is described as follows: Ceramide generation in Jurkat cells (diacylglycerol kinase assay). The test is classed as cell-based, human. The following applies: 50 mM imipramine 30 min; 2 minutes post UV-C or Fas stimulation. Here is the method:
as §1
Jurkat cells, stimulated with UV-C or CH-11, were incubated for the indicated times at 37° C. Stimulation was terminated by the addition of 2 ml of chloroform:methanol:HCl (100:100:1,v/v/v), and ceramide was quantified by the diacyglycerol kinase assay, as described^97.

The target in test [3] is T1, ASMase (Homo sapiens, UniProt P17405).
T1 construct: Jurkat cells were lysed in PBS containing 0.2% Triton X-100; endogenous in cells; host or cells: Jurkat T lymphocytes (clone E6-1, ATCC)
T1 sequence (P17405 47-631): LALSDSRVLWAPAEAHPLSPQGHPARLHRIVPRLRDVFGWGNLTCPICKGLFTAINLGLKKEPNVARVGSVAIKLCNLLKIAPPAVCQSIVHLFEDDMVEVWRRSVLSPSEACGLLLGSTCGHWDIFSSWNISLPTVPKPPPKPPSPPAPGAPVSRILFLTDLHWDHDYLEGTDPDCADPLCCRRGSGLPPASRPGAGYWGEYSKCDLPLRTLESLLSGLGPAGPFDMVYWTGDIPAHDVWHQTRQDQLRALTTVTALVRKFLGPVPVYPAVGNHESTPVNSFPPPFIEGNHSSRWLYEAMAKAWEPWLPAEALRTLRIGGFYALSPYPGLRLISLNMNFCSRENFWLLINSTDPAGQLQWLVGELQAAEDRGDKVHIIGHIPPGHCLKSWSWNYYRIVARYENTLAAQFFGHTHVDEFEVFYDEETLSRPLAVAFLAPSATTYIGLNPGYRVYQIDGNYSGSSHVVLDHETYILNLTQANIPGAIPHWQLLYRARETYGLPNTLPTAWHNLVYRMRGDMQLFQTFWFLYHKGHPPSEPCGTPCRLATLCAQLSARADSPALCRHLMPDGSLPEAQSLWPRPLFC
The experiment in a line: ASMase activity assay in Jurkat cells stimulated with UV-C or anti-Fas. Type of test: cell-based. Here is the method:
as §1, with “reference. […]” for “reference.”
ASMase activity was measured using a fluorescence-based, high-performance liquid chromatographic (HPLC) assay^98. […] ASMase activity was measured by incubating an equal volume of lysate in assay buffer [500 μM BODIPY-C12 sphingomyelin (Molecular Probes, Eugene OR), 0.1 mM ZnCl2, 0.1 M sodium acetate pH 5.0 and 0.6% Triton X-100] for 60 min at 37° C. […] Fluorescence was quantified using a Waters 474 (Waters Corp.) fluorescence detector set to excitation and emission wavelengths of 505 and 540 nm, respectively. The amount of product generated was calculated using a regression equation derived from a standard curve established for known amounts of BODIPY-C12 ceramide standard. […]

Structures are written as SMILES.

As for `CN(C)CCCN1c2ccccc2CCc2ccccc21` [imipramine], the apoptosis result in test [1] is given as “attenuated”. Moreover, the ceramide generation entry in test [2] is reported as “abrogated”. In addition, the “UV-C and Fas-induced ASMase activation” value in test [3] (50 mM imipramine 30 min, 1 min post stimulation) is given as “abrogated”. Moreover, in test [3] (pre-treatment with 50 mM imipramine for 30 min), the “baseline ASMase activity” value was “decreased”.
